Results: the Kinase Knowledgebase extract (Sharma et al. 2016)

Molecular target: PIK3CD (Human) (UniProt O00329)
Assay: Enzyme Assay

Sequence of PIK3CD (Human) (O00329 whole entry, looked up): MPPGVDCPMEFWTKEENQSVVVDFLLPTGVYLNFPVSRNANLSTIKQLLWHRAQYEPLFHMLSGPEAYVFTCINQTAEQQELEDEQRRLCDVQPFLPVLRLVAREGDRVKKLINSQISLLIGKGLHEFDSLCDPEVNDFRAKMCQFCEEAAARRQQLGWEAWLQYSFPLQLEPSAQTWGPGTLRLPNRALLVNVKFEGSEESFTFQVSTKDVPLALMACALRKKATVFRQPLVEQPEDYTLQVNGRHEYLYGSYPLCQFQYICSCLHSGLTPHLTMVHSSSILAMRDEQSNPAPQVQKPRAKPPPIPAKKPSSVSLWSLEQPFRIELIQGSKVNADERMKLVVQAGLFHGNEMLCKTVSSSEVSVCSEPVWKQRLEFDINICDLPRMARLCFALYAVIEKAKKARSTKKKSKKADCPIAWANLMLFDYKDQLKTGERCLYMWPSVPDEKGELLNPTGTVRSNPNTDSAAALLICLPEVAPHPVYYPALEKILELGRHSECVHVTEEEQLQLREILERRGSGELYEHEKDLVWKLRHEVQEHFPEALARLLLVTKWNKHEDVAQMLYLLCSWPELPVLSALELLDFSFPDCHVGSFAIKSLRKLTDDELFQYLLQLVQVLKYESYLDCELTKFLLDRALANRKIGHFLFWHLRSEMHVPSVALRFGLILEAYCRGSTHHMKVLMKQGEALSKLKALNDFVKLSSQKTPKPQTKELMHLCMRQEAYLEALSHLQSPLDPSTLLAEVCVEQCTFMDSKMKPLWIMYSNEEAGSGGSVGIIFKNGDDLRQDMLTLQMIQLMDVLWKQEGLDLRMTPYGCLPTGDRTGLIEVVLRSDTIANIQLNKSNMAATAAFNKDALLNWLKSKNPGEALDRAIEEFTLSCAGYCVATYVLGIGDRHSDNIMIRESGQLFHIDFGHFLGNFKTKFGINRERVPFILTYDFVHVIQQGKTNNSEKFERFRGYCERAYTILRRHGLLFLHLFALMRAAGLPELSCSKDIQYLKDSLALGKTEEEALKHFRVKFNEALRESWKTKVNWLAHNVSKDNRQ

Row | SMILES | IC50 [nM]
1 | COc1cc(OC)cc(-n2c([C@H](C)Nc3nc(N)nc(N)c3C#N)nc3cccc(Cl)c3c2=O)c1 | 1 to 10
2 | C[C@H](Nc1nc(N)nc(N)c1C#N)c1nc2cccc(S(C)(=O)=O)c2c(=O)n1-c1cccc(F)c1 | 1 to 10
3 | C[C@H](Nc1nc(N)nc(N)c1C(N)=O)c1nc2cccc(Cl)c2c(=O)n1-c1ccccc1 | ≤ 1
4 | CC(C)C[C@H](Nc1nc(N)nc(N)c1C#N)c1nc2cccc(Cl)c2c(=O)n1-c1cccc(F)c1 | 1 to 10
5 | Cc1ccc(F)c2c(=O)n(-c3cccc(C#N)c3)c([C@H](C)Nc3nc(N)nc(N)c3C#N)nc12 | 10 to 50
6 | C[C@H](Nc1nc(N)nc(N)c1C#N)c1nc2cccc(Cl)c2c(=O)n1-c1cc(F)cc(Cl)c1 | 1 to 10
7 | C[C@H](Nc1nc(N)nc(N)c1C#N)c1nc2c(Cl)cccc2c(=O)n1-c1ccccc1 | 1 to 10
8 | C[C@H](Nc1nc(N)nc(N)c1C#N)c1nc2cccc(F)c2c(=O)n1-c1cccc(C(F)F)c1 | 1 to 10
9 | CC[C@H](Nc1nc(N)nc(N)c1C#N)c1nc2ccc(F)cc2c(=O)n1-c1cccc(F)c1 | 1 to 10
10 | Cc1ccc(F)c2c(=O)n(-c3cc(F)cc(C#N)c3)c([C@H](C)Nc3nc(N)nc(N)c3C#N)nc12 | 10 to 50
11 | C[C@H](Nc1nc(N)nc(N)c1C#N)c1nc2cccc(Cl)c2c(=O)n1-c1cccc(F)c1 | ≤ 1
12 | CC[C@H](Nc1nc(N)nc(N)c1C#N)c1nc2cccc(Cl)c2c(=O)n1-c1cc(F)cc(C(F)F)c1 | 1 to 10
13 | Cc1cccc2c(=O)n(-c3cccc(Cl)c3)c([C@H](C)Nc3nc(N)nc(N)c3C#N)nc12 | ≤ 1
14 | Cc1ccc(Cl)c2c(=O)n(-c3cc(F)cc(F)c3)c([C@H](C)Nc3nc(N)nc(N)c3C#N)nc12 | 1 to 10
15 | C[C@H](Nc1nc(N)nc(N)c1C#N)c1nc2c(C#N)cccc2c(=O)n1-c1cc(F)cc(F)c1 | 1 to 10
16 | C[C@H](Nc1nc(N)nc(N)c1C#N)c1nc2c(C#N)cc(F)cc2c(=O)n1-c1ccccc1 | 1 to 10
17 | CC[C@H](Nc1nc(N)nc(N)c1C#N)c1nc2cccc(F)c2c(=O)n1-c1cccc(F)c1 | 1 to 10

Row | SMILES | IC50 [nM]
18 | C[C@H](Nc1nc(N)nc(N)c1C#N)c1nc2cccc(F)c2c(=O)n1-c1ccccc1 | 1 to 10
19 | Cc1cccc2nc([C@H](C)Nc3nc(N)nc(N)c3C#N)n(-c3ccccc3)c(=O)c12 | ≤ 1
20 | C[C@H](Nc1nc(N)nc(N)c1C#N)c1nc2cccc(S(C)(=O)=O)c2c(=O)n1-c1c(F)cccc1F | 1 to 10
21 | Cc1cccc2nc([C@H](C)Nc3nc(N)nc(N)c3C#N)n(-c3cc(F)cc(C#N)c3)c(=O)c12 | 1 to 10
22 | C[C@H](Nc1nc(N)nc(N)c1C#N)c1nc2c(F)ccc(F)c2c(=O)n1-c1ccccc1 | ≤ 1
23 | CC(C)c1cccc(-n2c([C@H](C)Nc3nc(N)nc(N)c3C#N)nc3cccc(Cl)c3c2=O)c1 | 1 to 10
24 | C[C@H](Nc1ncnc(N)c1C#N)c1nc2cccc(Cl)c2c(=O)n1-c1ccccc1 | ≤ 1
25 | CC[C@H](Nc1nc(N)nc(N)c1C#N)c1nc2cccc(C)c2c(=O)n1-c1cc(F)cc(F)c1 | ≤ 1
26 | Cc1ccc(Cl)c2c(=O)n(-c3ccccc3)c([C@H](C)Nc3nc(N)nc(N)c3C#N)nc12 | ≤ 1
27 | C[C@H](Nc1nc(N)nc(N)c1C#N)c1nc2ccccc2c(=O)n1-c1cc(F)cc(F)c1 | 10 to 50
28 | CCc1cccc2c(=O)n(-c3cc(F)cc(F)c3)c([C@H](C)Nc3nc(N)nc(N)c3C#N)nc12 | 10 to 50
29 | C[C@H](Nc1nc(N)nc(N)c1C#N)c1nc2c(F)cc(F)cc2c(=O)n1-c1cc(F)cc(F)c1 | 10 to 50
30 | C[C@H](Nc1nc(N)nc(N)c1C#N)c1nc2cccc(F)c2c(=O)n1-c1cccc(C#N)c1 | 10 to 50
31 | C[C@H](Nc1nc(N)nc(N)c1C#N)c1nc2cccc(F)c2c(=O)n1-c1cccc(F)c1 | 1 to 10
32 | C[C@H](Nc1nc(N)nc(N)c1C#N)c1nc2c(F)ccc(C#N)c2c(=O)n1-c1ccccc1 | 1 to 10
33 | C[C@H](Nc1nc(N)nc(N)c1C#N)c1nc2c(C(F)F)cccc2c(=O)n1-c1cc(F)cc(F)c1 | 10 to 50
34 | C[C@H](Nc1nc(N)nc(N)c1C#N)c1nc2cccc(S(C)(=O)=O)c2c(=O)n1-c1cc(F)cc(F)c1 | 1 to 10
